Active and inactive are the calls of the source. The calls are words filed in the database; no cut-off is given here.
Experiments:
Plasmodium berghei [1] = assay: Antiplasmodial activity against GFP-expressing liver stage Plasmodium berghei sporozoites infected in human Huh7 cells preincubated for 1 hr before infection at 1 uM measured after 48 hrs post infection by firefly luciferase reporter gene assay; assay type: functional; settings: Huh-7
[2] = Cytotoxicity against human HuH7 cells up to 15 uM after 48 hrs by Alamar Blue assay; assay type: cell-based; settings: huh-7, 48 h
Plasmodium berghei [3] = assay: Antiplasmodial activity against GFP-expressing liver stage Plasmodium berghei sporozoites infected in human Huh7 cells preincubated for 1 hr before infection at 5 uM measured after 48 hrs post infection by firefly luciferase reporter gene assay; assay type: functional; settings: Huh-7
Plasmodium berghei [4] = assay: Antiplasmodial activity against GFP-expressing liver stage Plasmodium berghei sporozoites infected in human Huh7 cells preincubated for 1 hr before infection at 15 uM measured after 48 hrs post infection by firefly luciferase reporter gene assay; assay type: functional; settings: Huh-7
Plasmodium berghei [5] = assay: Antiplasmodial activity against GFP-expressing liver stage Plasmodium berghei sporozoites infected in human Huh7 cells preincubated for 1 hr before infection measured after 48 hrs post infection by firefly luciferase reporter gene assay; assay type: functional, organism-based; settings: Huh-7

Structure (SMILES)	inhibition (Plasmodium berghei [1])	Activity [2]	inhibition at 5 µM (Plasmodium berghei [3])	inhibition (Plasmodium berghei [4])	inhibition (Plasmodium berghei [3])	inhibition at 1 µM (Plasmodium berghei [1])	inhibition at 15 µM (Plasmodium berghei [4])	inhibition (Plasmodium berghei [5])
CC(C)=C[C@H](O)C[C@@H](C)[C@H]1CC[C@@]2(C)[C@@H]3[C@@H](O)C=C4[C@@H](CC[C@H](O)C4(C)C)[C@]3(C)CC[C@]12C [BALSAMINOL F]	Active	Non-toxic	32%	Active	–	–	–	–
COc1ccc(C(=O)O[C@H]2CC[C@@H]3C(=C[C@H](OC)[C@@H]4[C@@]3(C)CC[C@]3(C)[C@@H]([C@H](C)C[C@H](C=C(C)C)OC(=O)c5ccc(OC)cc5)CC[C@@]43C)C2(C)C)cc1 [KARAVOATE N]	inactive	Non-toxic	–	inactive	inactive	–	–	–
CCCC(=O)O[C@@H](C=C(C)C)C[C@@H](C)[C@H]1CC[C@@]2(C)[C@@H]3[C@@H](OC)C=C4[C@@H](CC[C@H](O)C4(C)C)[C@]3(C)CC[C@]12C [KARAVOATE E]	–	Toxic	89%	–	–	39%	99%	–
CO[C@H]1C=C2[C@@H](CC[C@H](O)C2(C)C)[C@]2(C)CC[C@]3(C)[C@@H]([C@H](C)C[C@H](C=C(C)C)OC(C)=O)CC[C@@]3(C)[C@H]12 [KARAVOATE A]	–	Toxic	93%	–	–	28%	–	–
CCC(=O)O[C@@H](C=C(C)C)C[C@@H](C)[C@H]1CC[C@@]2(C)[C@@H]3[C@@H](OC)C=C4[C@@H](CC[C@H](O)C4(C)C)[C@]3(C)CC[C@]12C [KARAVOATE C]	–	Non-toxic	60%	–	–	13%	–	–
CO[C@H]1C=C2[C@@H](CC[C@H](OC(=O)c3ccc([N+](=O)[O-])cc3)C2(C)C)[C@]2(C)CC[C@]3(C)[C@@H]([C@H](C)C[C@H](C=C(C)C)OC(=O)c4ccc([N+](=O)[O-])cc4)CC[C@@]3(C)[C@H]12 [KARAVOATE J]	inactive	Non-toxic	–	inactive	inactive	–	–	–
CC(=O)O[C@H]1C=C2[C@@H](CC[C@H](OC(C)=O)C2(C)C)[C@]2(C)CC[C@]3(C)[C@@H]([C@H](C)C[C@H](C=C(C)C)OC(C)=O)CC[C@@]3(C)[C@H]12 [TRIACETYLBALSAMINOL F]	Active	Non-toxic	–	Active	Active	–	–	–
CO[C@H]1C=C2[C@@H](CC[C@H](OC(=O)c3ccccc3)C2(C)C)[C@]2(C)CC[C@]3(C)[C@@H]([C@H](C)C[C@H](C=C(C)C)OC(=O)c4ccccc4)CC[C@@]3(C)[C@H]12 [KARAVOATE H]	inactive	Non-toxic	–	inactive	inactive	–	–	–
CO[C@H]1C=C2[C@@H](CC[C@H](O)C2(C)C)[C@]2(C)CC[C@]3(C)[C@@H]([C@H](C)C[C@H](C=C(C)C)OC(=O)c4ccc([N+](=O)[O-])cc4)CC[C@@]3(C)[C@H]12 [KARAVOATE I]	–	Non-toxic	88%	–	–	34%	97%	–
CCC(=O)O[C@H]1CC[C@@H]2C(=C[C@H](OC)[C@@H]3[C@@]2(C)CC[C@]2(C)[C@@H]([C@H](C)C[C@H](C=C(C)C)OC(=O)CC)CC[C@@]32C)C1(C)C [KARAVOATE D]	–	Non-toxic	82%	–	–	34%	93%	–
COC(C)(C)/C=C/C[C@@H](C)[C@H]1CC[C@@]2(C)[C@@H]3[C@@H](O[C@H]4O[C@@H](CO)[C@H](O)[C@H](O)[C@@H]4O)C=C4[C@@H](CC[C@H](O)C4(C)C)[C@]3(C)CC[C@]12C [BALSAMINOSIDE A]	–	Toxic	–	–	–	–	–	–
CO[C@H]1C=C2[C@@H](CC[C@H](O)[C@]2(C)CO)[C@]2(C)CC[C@]3(C)[C@@H]([C@H](C)C[C@@H](O)C=C(C)C)CC[C@@]3(C)[C@H]12 [BALSAMINOL B]	–	Non-toxic	47%	–	–	–	–	–
CO[C@H]1C=C2[C@@H](CC[C@H](O)C2(C)C)[C@]2(C)CC[C@]3(C)[C@@H]([C@H](C)C[C@@H](O)C=C(C)C)CC[C@@]3(C)[C@H]12 [KARAVELAGENIN C]	–	Non-toxic	73%	–	–	27%	99%	–
COc1ccc(C(=O)O[C@@H](C=C(C)C)C[C@@H](C)[C@H]2CC[C@@]3(C)[C@@H]4[C@@H](OC)C=C5[C@@H](CC[C@H](O)C5(C)C)[C@]4(C)CC[C@]23C)cc1 [KARAVOATE M]	–	Non-toxic	87%	–	–	14%	99%	–
CCCC(=O)O[C@H]1CC[C@@H]2C(=C[C@H](OC)[C@@H]3[C@@]2(C)CC[C@]2(C)[C@@H]([C@H](C)C[C@H](C=C(C)C)OC(=O)CCC)CC[C@@]32C)C1(C)C [KARAVOATE F]	–	Non-toxic	64%	–	–	11%	82%	–
CO[C@H]1C=C2[C@@H](CC[C@H](OC(C)=O)C2(C)C)[C@]2(C)CC[C@]3(C)[C@@H]([C@H](C)C[C@H](C=C(C)C)OC(C)=O)CC[C@@]3(C)[C@H]12 [KARAVOATE B]	–	Non-toxic	96%	–	–	60%	99%	Dose-dependent effect
